US20230233695A1, “MITHRAMYCIN A NANOPARTICLES FOR CANCER TREATMENT” (priority 2021, published 2023)
Values joined by “and” are separate entries in the source; they are usually repeats but may differ in a detail not shown here. Identical values can stand only once. Like-named read-outs stand apart in the source and are kept apart here.

Key:
[1] = cited from earlier work
[2] = tested on: TC-71; experiment: XTT cell viability assay, TC-71; type: cell-based; details: TC-71, 72 h, read-out: Viability IC50
Experimental: (§1) Cell viability assays. For viability assays, four EWS:Fli1 fusion tumor cell lines (RD-ES, SK-ES-1, A673, and TC-71), one human embryonic kidney cell line (293.T), one ES tumor cell line with ERG fusion (CHLA-25), one fetal kidney cell line (HEK293.T), one hepatoblastoma cell line (HepG2), one chronic myeloid leukemia (MEG-01), and one acute monocytic leukemia (THP-1) cell line were plated at 5000 cells/well in 100 μL growth media in 96-well plates. After overnight incubation, 50 μL of growth media containing mithramycin A (MithA) (Cayman Chemical, Ann Arbor, Mi. Item Number 11434) or boronic acid-conjugated nano-MithA (MANP) (0.12 nM to 500 nM, final) or dimethyl sulfoxide (DMSO, 0.01% v/v) vehicle was added to the wells, and cell viability assays were performed 72 hours later. The cells were incubated with the activated-XTT solution (mixture of 2% final concentration of activation reagent with the XTT reagent) from ATCC (Catalog Number 30-1011K, XTT Cell Proliferation Assay Kit) for 3 hours prior to recording absorbance. The cell viability was determined by measuring the absorbance wavelength at 475 nm and reference wavelength at 650 nm on an Infinite M200 plate reader (Tecan Group, Ltd. Mannedorf, Switzerland). […]

[3] = tested on: CHLA-25; experiment: XTT cell viability assay, CHLA-25; type: cell-based; details: 72 h, read-out: Viability IC50
Experimental: as §1

[4] = tested on: MEG-01; experiment: XTT cell viability assay, MEG-01; type: cell-based; details: read-out: Viability IC50, MEG-01, chronic myeloid leukemia, BRC:ABL, 72 hours
Experimental: as §1

[5] = tested on: RD-ES; experiment: XTT cell viability assay, RD-ES; type: cell-based; details: 72 h, read-out: Viability IC50
Experimental: as §1

[6] = tested on: THP-1; experiment: XTT cell viability assay, THP-1; type: cell-based; details: Homo sapiens, THP-1, 72 h, read-out: Viability IC50
Experimental: as §1

[7] = tested on: A673; experiment: XTT cell viability assay, A673; type: cell-based; details: Homo sapiens, A673, 72 h, read-out: Viability IC50
Experimental: as §1

[8] = tested on: NR0B1; experiment: Western blotting, NR0B1 protein expression; type: cell-based; details: 10 nM, 24 hours; compared with saline control, p<0.0471
Experimental: Western Blotting. Expression Western blotting was performed to assess the expression of NR0B1 (EWS:Fli1 target gene) and Rad 51 (DNA homologous recombination repair HRR) at protein level as provisory described in Lin et al 2021. Briefly, cells were grown to ˜70% confluence and exposed to 10 nM of MithA/MANP (final concentration) or DMSO, (0.01% v/v) vehicle and blank polymer for 24 hours. Lysates were collected in cold RIPA lysis buffer supplemented with 1×HALT protease/phosphatase inhibitor cocktail (Thermo Scientific) and clarified by centrifugation. Protein concentration of the supernatant was determined by BCA assay (Thermo Scientific), and then diluted in 4× loading buffer (Licor Inc., Lincoln, Nebr.) containing 1× NuPAGE reducing agent (Life Technologies). Prior to electrophoresis, samples were denatured by incubating at 70° C. for 10 minutes. Samples were then resolved (25 μg/lane) on 4-20% gradient SDS-PAGE gels and transferred to low-fluorescence PVDF membranes (Bio-Rad Inc., Hercules Calif.). Transfer efficiency and equivalence of total protein load was assessed using Revert 700 Total Protein Stain kits (Licor Inc). Membranes were then washed, blocked in Odyssey Blocking Buffer (PBS) (Licor Inc), and incubated with primary antibodies (Table S4.3 above) overnight at 4° C. diluted in blocking buffer.

[9] = tested on: SK-ES-1; experiment: XTT cell viability assay, SK-ES-1; type: cell-based; details: Homo sapiens, SK-ES1, 72 h, read-out: Viability IC50
Experimental: as §1

[10] = tested on: Female C57BL/6J mice; experiment: In vivo toxicity: hematology; set-up: lymphocytes (% WBC) / granulocytes (% WBC): concentration or dose not given beside the values
Experimental: In vivo toxicity of MithA and MANP. Cohorts of n=6-7 C57BL/6J females, 8-10 wko were randomized to receive either intravenous or intraperitoneal administration of saline control vehicle, blank polymer, MithA, or MANP as described in TABLES 2A and 2B. Body weight loss exceeding 20%, death, morbidity, changes in behavior, and any other sign of local or systemic toxicity were recorded.
For hematology, blood was collected 24 h after the last dose by venipuncture of the tail or mandibular veins. Blood (>100 uL) was transferred to Sarstedt EDTA tubes and held on ice until differential complete blood count was performed using Abaxis VetScan HM2 hematology analyzer (Union City, Calif.). Samples were analyzed within 8 hours of collection. Giemsa-stained blood smears were also obtained for manual differentiation of granulocytes, as the instrument is not able to discriminate neutrophils, eosinophils, or basophils due to inefficient lysis of mouse granulocytes by this system.

[11] = tested on: HepG2; experiment: XTT cell viability assay, HepG2; type: cell-based, human
Experimental: as §1

[12] = 5x2 mg/kg i.v., in comparison to saline vehicle

CO[C@H](C(=O)[C@@H](O)[C@@H](C)O)[C@@H]1Cc2cc3cc(O[C@H]4C[C@@H](O[C@H]5C[C@@H](O)[C@H](O)[C@@H](C)O5)[C@H](O)[C@@H](C)O4)c(C)c(O)c3c(O)c2C(=O)[C@H]1O[C@H]1C[C@@H](O[C@H]2C[C@@H](O[C@H]3C[C@](C)(O)[C@H](O)[C@@H](C)O3)[C@@H](O)[C@@H](C)O2)[C@H](O)[C@@H](C)O1 [MithA, (2S,3S)-2-[(2S,4R,5R,6R)-4-[(2S,4R,5S,6R)-4-[(2S,4S,5R,6R)-4,5-dihydroxy-4,6-dimethyloxan-2-yl]oxy-5-hydroxy-6-methyloxan-2-yl]oxy-5-hydroxy-6-methyloxan-2-yl]oxy-3-[(1 S,3S,4R)-3,4-dihydroxy-1-methoxy-2-oxopentyl]-6-[(2S,4R,5R,6R)-4-[(2S,4R,5S,6R)-4,5-dihydroxy-6-methyloxan-2-yl]oxy-5-hydroxy-6-methyloxan-2-yl]oxy-8,9-dihydroxy-7-methyl-3,4-dihydro-2H-anthracen-1-one]
patients with reversible grade 4 ALT/AST elevation ([1]; dose escalation, single-agent therapy): 2/8 and 2 out of 8 | serum level reached ([1]; level hypothesized to inhibit EWS:Fli1 activity, not reached before adverse effects): < 50 nM | IC50 [2]: 9.3 nM | IC50 [3]: 349 nM | IC50 [4]: 37.8 nM | IC50 [5]: 6.2 nM | IC50 [6]: 234 nM | IC50 [7]: 12.4 nM | NR0B1 protein expression [8]: significantly suppressed | IC50 [9]: 11.9 nM | thrombocytopenia / platelet dysfunction ([10]; 5x2 mg/kg (eq.) i.v.): displayed thrombocytopenia | decrease of plateletcrit (%) [10, 12]: 3.4 fold | decrease of total platelet count [10, 12]: 3.6 fold | red blood cell (RBC) parameters ([10]; 5x4 mg/kg i.p.): no significant changes | total white blood cell (WBC) count ([10]; 5x4 mg/kg i.p., relative to controls): no significant difference | granulocytes (% Gran) ([10]; 5x4 mg/kg i.p., vs saline (P=0.001)): increased | lymphocytes (% LYM) ([10]; 5x4 mg/kg i.p., vs saline (p<0.0001)): decreased | monocytes (% MON) ([10]; 5x4 mg/kg i.p., vs saline (p=0.0187)): increased | lymphocytes (% WBC) ([10]; 5xmg/kg i.v., compared to saline vehicle): reduced | granulocytes (% WBC) ([10]; 5xmg/kg i.v., compared to saline vehicle (p<0.0001)): increased | RBC parameters ([10]; five i.v. injections on alternating days, between treatment groups): No changes | plateletcrit ([10]; single i.p. 4 mg/kg, vs saline): significant reductions | mean corpuscular hemoglobin ([10]; single i.p. 4 mg/kg, vs saline (p=0.002)): significant reductions | total platelet count ([10]; single i.p. 4 mg/kg, vs saline (p=0.0251)): significant reductions | IC50 ([11]; Homo sapiens, HepG2, 72 h, read-out: Viability IC50, HepG2, hepatoblastoma): 24.9 nM | IC50 ([11]; read-out: Viability IC50, HepG2, hepatoblastoma, 72 hours): 24.9 nM
